Test results published in US7109351B1, “Fused pyrrolecarboxamides; GABA brain receptor ligands” (Neurogen Corporation, priority 1999, dated 2006).

Biological target: benzodiazepine site of the GABAA receptor
Test: GABAA receptor binding assay (displacement of 3H-Ro15-1788)
Details: rat cortical tissue homogenate, 0.5 nM 3H-Ro15-1788 [3H-Flumazenil], 30 min at 4° C.

Ki: 12 nM
SMILES: CC1CC(=O)c2c(C(=O)Nc3ccc(OCCO)nc3)c[nH]c2C1 (stereo not shown) [Compound 15, N-[(2-Hydroxyethoxy)pyrid-5-yl]-4-oxo-6-methyl-4,5,6,7-tetrahydro-1H-indole-3-carboxamide]
